We go through 36 compounds from BindingDB's records for doi:10.1021/jm00087a005 (Nova Pharmaceutical, 1992).

Common to all, as to test: Potency at the sigma binding site was determined in radioligand
For test [1], the target named is sigma receptor, [3H]-(+)-3-PPP site (Cavia porcellus).
Test [2] addresses sigma receptor, [3H]DTG site (Cavia porcellus).
The target of test [3] is sigma receptor, [3H]-(+)-3-PPP site (Cavia porcellus). This is another data set of the same source.

A word on the IC50: it is the point on the concentration scale where inhibition reaches its midpoint. In the case of `O=c1cc(-c2ccccc2)oc2cc(OCCCCCCCN3CCC(O)CC3)ccc12`, the IC50 was 19 nM in test [1] and 16 nM in test [2]. As to `CN(C)CCOc1ccc2oc(-c3ccccc3)cc(=O)c2c1`, the IC50 in test [2] worked out at 590 nM; in test [3] it was 40 nM. As for `O=c1cc(-c2ccc(F)cc2)oc2ccc(OCCCCCCN3CCC(O)CC3)cc12`, the IC50 was 95 nM in test [2] and 132 nM in test [3]. In the case of `O=c1cc(-c2ccccc2Cl)oc2ccc(OCCCCCCN3CCC(O)CC3)cc12`, the IC50 in test [1] came out at 29 nM; in test [2], 47 nM. Regarding `CN(CCCCCCOc1ccc2oc(-c3ccccc3)cc(=O)c2c1)Cc1ccccc1`, the figures for the IC50 in test [2] and in test [3] were 52 nM and 75 nM, respectively. Regarding `CN(C)CCCCCCCCOc1ccc2oc(-c3ccccc3)cc(=O)c2c1`, the IC50 in test [2] is 227 nM; in test [3] it was 143 nM. As for `O=c1cc(-c2ccc(Cl)cc2)oc2ccc(OCCCCCCN3CCC(O)CC3)cc12`, the IC50 in test [2] came out at 195 nM; in test [3], 164 nM.

On to `O=c1cc(-c2cccs2)oc2ccc(OCCCCCCN3CCC(O)CC3)cc12`, for which the IC50 in test [1] was 232 nM; in test [2], 119 nM. As to `O=c1cc(-c2ccccc2)oc2ccc(OCCCN3CCC(O)CC3)cc12`, the IC50 in test [2] was 130 nM; in test [3], 123 nM. On to `CCOC(=O)C1CCN(CCCCCCOc2ccc3oc(-c4ccccc4)cc(=O)c3c2)CC1`, for which the IC50 worked out at 164 nM in test [2] and 102 nM in test [3]. Take `O=c1cc(-c2ccccc2)oc2ccc(OCCCCCCN3CCC(O)CC3)cc12`: the IC50 in test [1] came out at 121 nM; in test [2], 100 nM. As for `O=c1cc(C2CCCC2)oc2ccc(OCCCCCCN3CCC(O)CC3)cc12`, the IC50 in test [2] turned out to be 51 nM; in test [3] it was 55 nM. As to `COc1ccc(-c2cc(=O)c3cc(OCCCCCCN4CCC(O)CC4)ccc3o2)cc1`, the figures for the IC50 in test [2] and in test [3] were 254 nM and 332 nM, respectively. Consider `COc1ccc(-c2cc(=O)c3cc(OCCCCCN4CCC(O)CC4)ccc3o2)cc1`, for which the 50% inhibitory concentration (IC50) in test [2] was 493 nM; in test [3], 600 nM. Regarding `O=c1cc(C2CCCCC2)oc2ccc(OCCCCCCN3CCCCC3)cc12`, the IC50 in test [2] is 55 nM; in test [3], 32 nM.

Turning to `O=c1cc(-c2ccccc2)oc2ccc(OCCCCCCN3CCCCC3)cc12`, the concentration for half-maximal inhibition (IC50) is 101 nM in test [2] and 54 nM in test [3]. Consider `O=c1cc(-c2ccccc2)oc2cccc(OCCCCCCCN3CCC(O)CC3)c12`, for which the IC50 in test [1] turned out to be 65 nM; in test [2] it was 36 nM. `COc1cccc(-c2cc(=O)c3cc(OCCCCCCN4CCC(O)CC4)ccc3o2)c1`: the IC50 was determined as 76 nM in test [2] and 111 nM in test [3]. Regarding `O=c1cc(C2CCCCC2)oc2ccc(OCCCCCCN3CCC(O)CC3)cc12`, the half-inhibitory concentration (IC50) is 88 nM in test [2] and 46 nM in test [3].

In the case of `O=c1cc(C2CCCC2)oc2ccc(OCCCCCCN3CCCCC3)cc12`, the results for the concentration for half-maximal inhibition (IC50) in test [2] and in test [3] were 26 nM and 38 nM, respectively. `O=c1cc(-c2ccccc2)oc2cccc(OCCCCN3CCC(O)CC3)c12` had an IC50 in test [2] of 58 nM. On to `O=c1cc(-c2ccccc2)oc2ccc(OCCCCCCN3CCCC(O)C3)cc12` (stereo not given), for which the IC50 in test [2] amounted to 86 nM; in test [3], 77 nM. `CN(C)CCCCCCCOc1ccc2oc(-c3ccccc3)cc(=O)c2c1`: the IC50 came out at 165 nM in test [2] and 188 nM in test [3]. In turn, `O=c1cc(-c2ccccc2)oc2ccc(OCCCCCCN3CCNCC3c3ncccn3)cc12` (stereo not given) displayed a half-inhibitory concentration (IC50) in test [3] of 14200 nM. In the case of `CN(C)CCCCCCCCCCOc1ccc2oc(-c3ccccc3)cc(=O)c2c1`, the IC50 in test [2] was 297 nM; in test [3], 341 nM. On to `CC(C)Cc1cc(=O)c2cc(OCCCCCN3CCC(O)CC3)ccc2o1`, for which the IC50 worked out at 139 nM in test [2] and 261 nM in test [3].

As to `O=c1cc(-c2cccnc2)oc2ccc(OCCCCCCN3CCCCC3)cc12`, the half-inhibitory concentration (IC50) in test [2] came to 119 nM; in test [3] it was 192 nM. `O=c1cc(-c2ccncc2)oc2ccc(OCCCCCCN3CCC(O)CC3)cc12`: the figures for the IC50 in test [1] and in test [2] were 308 nM and 159 nM, respectively.

For the compound `O=c1cc(-c2ccccc2)oc2cc(OCCCCCCN3CCC(O)CC3)ccc12`, the IC50 in test [2] was 45 nM; in test [3], 70 nM. As to `CCN(CC)CCCCCCOc1ccc2oc(-c3ccccc3)cc(=O)c2c1`, the half-inhibitory concentration (IC50) in test [1] amounted to 100 nM; in test [2] it was 91 nM. As for `CN(C)CCCCCCCCCOc1ccc2oc(-c3ccccc3)cc(=O)c2c1`, the IC50 amounted to 334 nM in test [2] and 202 nM in test [3]. With `O=c1cc(-c2cccnc2)oc2ccc(OCCCCCCN3CCC(O)CC3)cc12`, the IC50 in test [2] was found to be 194 nM; in test [3], 210 nM. Take `CN(C)CCCCCCOc1ccc2oc(-c3ccccc3)cc(=O)c2c1`: the half-inhibitory concentration (IC50) was found to be 335 nM in test [1] and 432 nM in test [2].

Consider `CN(C)CCCCOc1ccc2oc(-c3ccccc3)cc(=O)c2c1`, for which the IC50 in test [2] was 720 nM; in test [3] it was 400 nM.

Turning to `O=c1cc(C2CCCCC2)oc2ccc(OCCCCCCN3CCOCC3)cc12`, the IC50 in test [2] was found to be 239 nM; in test [3], 95 nM. As to `O=c1cc(-c2ccccc2)oc2cccc(OCCCN3CCC(O)CC3)c12`, the results for the IC50 in test [1] and in test [2] were 91 nM and 125 nM, respectively.
